Tests used:
HCV replicon [1] = assay: HCV replicon luciferase assay; format: cell-based, Hepatitis C virus; settings: Hepatitis C virus, read-out: EC50
Procedure: To prepare plates, HCV replicon cells, with or without a Renilla luciferase reporter gene, were trypsinized and placed into each well of a 96-well plate with titrated test compounds added in columns 3 through 12; columns 1 and 2 contained a control compound (HCV protease inhibitor), and the bottom row contained cells without compound. The plates were then placed in a CO2 incubator at 37 degrees C.
Assays. Subsequent to addition of the test compounds described above (FRET Assay Preparation), at various times the plate was removed and Alamar blue solution (Trek Diagnostics, #00-100) was added per well as a measure of cellular toxicity. After reading in a Cytoflour 4000 instrument (PE Biosystems), plates were rinsed with PBS and then used for FRET assay by the addition of 30 ul of the FRET peptide assay reagent described above (FRET Assay Preparation) per well. The plate was then placed into the Cytoflour 4000 instrument which had been set to 340 excite/490 emission, automatic mode for 20 cycles and the plate read in a kinetic mode. Typically, the signal to noise using an endpoint analysis after the reads was at least three-fold. Alternatively, after Alamar blue reading, plates were rinsed with PBS, 50 ul of DMEM (high glucose) without phenol red was added and plates were then used for luciferase assay using the Promega Dual-Glo Luciferase Assay System.
Compound analysis was determined by quantification of the relative HCV replicon inhibition and the relative cytotoxicity values. To calculate cytoxicity values, the average Alamar Blue fluorescence signals from the control wells were set as 100% non-toxic. The individual signals in each of the compound test wells were then divided by the average control signal and multiplied by 100% to determine […]. To calculate the HCV replicon inhibition values, an average background value was obtained from the two wells containing the highest amount of HCV protease inhibitor at the end of the assay period. These numbers were similar to those obtained from naïve Huh-7 cells.
The background numbers were then subtracted from the average signal obtained from the control wells and this number was used as 100% activity. The individual signals in each of the compound test wells were then divided by the averaged control values after background subtraction and multiplied by 100% to determine percent activity. EC50 values for a protease inhibitor titration were calculated as the concentration which caused a 50% reduction in FRET or luciferase activity. The two numbers generated for the compound plate, percent cytoxicity and percent activity were used to determine compounds of interest for further analysis.

[2] = biological target: T1, HCV NS5B RdRp genotype 1b (Hepatitis C virus genotype 1b, UniProt Q9WMX2); assay: Modified HCV NS5B RdRp enzyme assay (with preincubation); format: biochemical
T1 construct: The protein was expressed with an 18 amino acid C-terminal truncation to enhance the solubility; made in house; host or cells: E. coli BL21 (DE3), pET21a
Outline: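 Seven-point IC50s were derived from SPA-based ³H-UTP incorporation after 4 h at 30 °C (Hepes pH 7.5, 2% DMSO). Compound was first mixed with 14 nM Δ18 NS5B genotype 1b enzyme. Then 0.2 nM polyA, 0.29 μM UTP and bead-bound oligo-dT12 (20 nM) were added.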

HCV replicon [3] = assay: HCV replicon FRET assay; format: cell-based; settings: Hepatitis C virus; FRET assay; read-out: EC50
Outline: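 Replicon cells (± Renilla luciferase reporter) incubated with titrated compound at 37 °C; NS3 protease activity read by FRET peptide cleavage (20 uM EDANS/DABCYL substrate, 340/490 nm kinetic) or luciferase.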

[4] = cells marked **: Luciferase assay
[5] = modified method (with preincubation)

T1 sequence (Q9WMX2 2420-2992): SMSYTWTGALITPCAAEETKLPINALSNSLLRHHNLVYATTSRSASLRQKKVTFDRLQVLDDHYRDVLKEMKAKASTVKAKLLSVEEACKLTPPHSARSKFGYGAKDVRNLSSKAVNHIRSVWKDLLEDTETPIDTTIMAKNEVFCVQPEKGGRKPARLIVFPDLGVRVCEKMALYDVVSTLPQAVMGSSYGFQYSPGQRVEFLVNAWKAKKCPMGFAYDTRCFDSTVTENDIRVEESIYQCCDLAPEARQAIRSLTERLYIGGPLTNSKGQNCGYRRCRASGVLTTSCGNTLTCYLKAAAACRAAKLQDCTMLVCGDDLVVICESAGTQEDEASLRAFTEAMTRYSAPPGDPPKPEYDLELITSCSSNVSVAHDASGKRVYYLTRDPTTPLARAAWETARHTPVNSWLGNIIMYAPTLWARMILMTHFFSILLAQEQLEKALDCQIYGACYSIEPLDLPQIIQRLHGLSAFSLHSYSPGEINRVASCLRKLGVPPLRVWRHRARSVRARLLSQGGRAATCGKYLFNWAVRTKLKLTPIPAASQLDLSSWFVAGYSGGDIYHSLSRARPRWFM

Row | Compound | EC50 (HCV replicon [1]; [4]) [nM] | IC50 [2, 5] [nM] | EC50 (HCV replicon [3]) [nM] | also measured
1 | CCOC(=O)/C=C/c1ccc(NC(=O)C2(N(C)C(=O)c3ccc4c(C5CCCCC5)c5n(c4c3)CCCc3ccccc3-5)CCCC2)cc1 | 1000 to 10000 | > 1000 | – | –
2 | O=C(O)c1ccc2c(C3CCCCC3)c3n(c2c1)CC(=O)N3c1ccccc1 | > 10000 | – | – | –
3 | O=C(O)c1ccc2c(C3CCCCC3)c3n(c2c1)CC/C=C\Nc1ccccc1-3 | 1000 to 10000 | – | – | –
4 | O=C(O)c1ccc2c(C3CCCCC3)c3n(c2c1)CCCn1ccnc1-3 | > 10000 | – | – | –
5 | CCOC(=O)c1cc2ccccc2c2c(C3CCCCC3)c3ccc(C(=O)OC)cc3n12 [drawing 141] | > 10000 | – | – | –
6 | O=C(O)/C=C/c1ccc(NC(=O)C2(NC(=O)c3ccc4c(C5CCCCC5)c5n(c4c3)CCCn3ccnc3-5)CCCC2)cc1 | 1000 to 10000 | 20 to 1000 | – | –
7 | COC(=O)c1ccc2c(C3CCCCC3)c3n(c2c1)CC(=O)N3c1ccccc1 | > 10000 | – | – | –
8 | CCOC(=O)/C=C/c1ccc(NC(=O)C2(NC(=O)c3ccc4c(C5CCCCC5)c5n(c4c3)CC(=O)Nc3ccccc3-5)CCCC2)cc1 | 10 to 1000 | – | – | –
9 | CCNC(=O)N(CCCN(C)C)C(=O)c1ccc2c(C3CCCCC3)c3n(c2c1)CCCc1ccccc1-3 | 1000 to 10000 | – | – | –
10 | COC(=O)c1ccc2c(C3CCCCC3)c3n(c2c1)CC(=O)N3Cc1ccccc1 | 1000 to 10000 | – | – | –
11 | O=C(O)/C=C/c1ccc(NC(=O)C2(NC(=O)c3ccc4c(C5CCCCC5)c5n(c4c3)C/C=C\CNc3ccccc3-5)CCCC2)cc1 | 10 to 1000 | 20 to 1000 | – | –
12 | COC(=O)c1ccc2c(C3CCCCC3)c3n(c2c1)CC=Cc1cc(OCc2ccccc2)ccc1-3 [Example 4, Methyl 13-cyclohexyl-3-benzyloxy-7H-indolo[2,1-a][2]benzazepine-10-carboxylate] | – | – | – | EC50 (HCV replicon [1]; luciferase method): > 10000 nM
13 | COC(=O)/C=C/c1ccc(NC(=O)C2(NC(=O)c3ccc4c(C5CCCCC5)c5n(c4c3)CCCc3occc3-5)CCCC2)cc1 | – | – | – | EC50 (HCV replicon [1]; luciferase method): 100 to 1000 nM
14 | COC(=O)c1ccc2c(C3CCCCC3)c3n(c2c1)CC(NC(=O)N1CCOCC1)Cc1ccccc1-3 (stereo not shown) | 1000 to 10000 | – | – | –
15 | Cn1c(-c2ccccc2)c(C2CCCCC2)c2ccc(C(=O)NC3(c4nnnn4CC(=O)O)CCCC3)cc21 | > 10000 | – | – | –
16 | COC(=O)c1ccc2c(C3CCCCC3)c3n(c2c1)CC=Cc1ccccc1-3 [Example 1, Methyl 13-cyclohexyl-7H-indolo[2,1-a][2]benzazepine-10-carboxylate] | – | – | – | EC50 (HCV replicon [1]; luciferase method): > 10000 nM
17 | COC(=O)c1ccc2c(C3CCCCC3)c3n(c2c1)CCCc1cc(O)ccc1-3 [Example 5, Methyl 13-cyclohexyl-3-hydroxy-6,7-dihydro-5H-indolo[2,1-a][2]benzazepine-10-carboxylate] | – | – | – | EC50 (HCV replicon [1]; luciferase method): > 10000 nM
18 | O=C(O)/C=C/c1ccc(NC(=O)C2(NC(=O)c3ccc4c(C5CCCCC5)c5n(c4c3)CCCc3occc3-5)CCCC2)cc1 | – | – | – | EC50 (HCV replicon [1]; luciferase method): < 100 nM
19 | O=C(O)c1ccc2c(C3CCCCC3)c3n(c2c1)CCOc1cccnc1-3 [Example 13, 13-cyclohexyl-6,7-dihydropyrido[2′,3′:6,7][1,4]oxazepino[4,5-a]indole-10-carboxylic acid] | – | – | – | EC50 (HCV replicon [1]; luciferase method): 100 to 1000 nM
20 | O=C(O)c1ccc2c(C3CCCCC3)c3n(c2c1)CC(=O)N3Cc1ccccc1 | > 10000 | – | – | –
21 | O=C(O)/C=C/c1ccc(NC(=O)C2(NC(=O)c3ccc4c(C5CCCCC5)c5n(c4c3)CCCc3ccccc3-5)CCCC2)cc1 | 10 to 1000 | 20 to 1000 | – | –
22 | COC(=O)c1ccc2c(C3CCCCC3)c3n(c2c1)CC(=O)N3 | 1000 to 10000 | – | – | –
23 | CC(C)(C)OC(=O)/C=C/c1ccc(NC(=O)C2(NC(=O)c3ccc4c(C5CCCCC5)c5n(c4c3)CC(=O)N5Cc3ccccc3)CCCC2)cc1 | > 10000 | – | – | –

Row | Compound | EC50 (HCV replicon [1]; [4]) [nM] | IC50 [2, 5] [nM] | EC50 (HCV replicon [3]) [nM] | also measured
24 | CCOC(=O)/C=C/c1ccc(NC(=O)C2(NC(=O)c3ccc4c(C5CCCCC5)c5n(c4c3)C(OC)c3ccccc3-5)CCCC2)cc1 (stereo not shown) | 1000 to 10000 | – | – | –
25 | O=C(O)c1ccc2c(C3CCCCC3)c3n(c2c1)CC(C(=O)O)Cc1ccccc1-3 (stereo not shown) [drawing 147] | > 10000 | – | – | –
26 | CN(C)CCNC(=O)C1=Cc2ccccc2-c2c(C3CCCCC3)c3ccc(C(=O)NC4(C(=O)Nc5ccc(/C=C/C(=O)O)cc5)CCCC4)cc3n2C1 | – | 20 to 1000 | 10 to 1000 | –
27 | C[C@@H]1CN(C(=O)C2=Cc3cc(F)ccc3-c3c(C4CCCCC4)c4ccc(C(=O)O)cc4n3C2)C[C@H](C)N1 | – | – | 50 to 1000 | IC50 ([2]; preincubation protocol): 10 to 1000 nM
28 | CN(C)S(=O)(=O)NC(=O)c1ccc2c(C3CCCCC3)c3n(c2c1)CC(C(=O)O)=Cc1ccccc1-3 | – | 20 to 1000 | > 10000 | –
29 | Cc1nc2c(s1)CCCn1c-2c(C2CCCCC2)c2ccc(C(=O)NC3(C(=O)Nc4ccc(/C=C/C(=O)O)cc4)CCCC3)cc21 | – | 20 to 1000 | 1000 to 10000 | –
30 | COC(=O)C1=Cc2cc(Cl)ccc2-c2c(C3CCCCC3)c3ccc(C(=O)OC)cc3n2C1 | – | > 1000 | 1000 to 10000 | –
31 | COC(=O)/C=C/c1ccc(NC(=O)C2(NC(=O)c3ccc4c(C5CCCCC5)c5n(c4c3)CCCc3ocnc3-5)CCCC2)cc1 | – | > 1000 | 1000 to 10000 | –
32 | O=C1Cn2c(c(C3CCCCC3)c3ccc(C(=O)O)cc32)N1 | > 10000 | – | – | –
33 | CC(C)NS(=O)(=O)NC(=O)c1ccc2c(C3CCCCC3)c3n(c2c1)CC(C(=O)N1CCOCC1)=Cc1ccccc1-3 | – | 20 to 1000 | 10 to 1000 | –
34 | COC(=O)c1ccc2c(C3CCCCC3)c3n(c2c1)CCNc1ccccc1-3 | – | > 1000 | 10 to 1000 | –
35 | O=C(O)/C=C/c1ccc(NC(=O)C2(NC(=O)c3ccc4c(C5CCCCC5)c5n(c4c3)CCCN(CCO)c3ccccc3-5)CCCC2)cc1 | – | 20 to 1000 | 10 to 1000 | –
36 | C[C@@H]1CN(C(=O)C2=Cc3cc(F)ccc3-c3c(C4CCCCC4)c4ccc(C(=O)O)cc4n3C2)C[C@H](C)O1 | – | – | 50 to 1000 | IC50 ([2]; preincubation protocol): 10 to 1000 nM
37 | CN(C)S(=O)(=O)NC(=O)c1ccc2c(C3CCCCC3)c3n(c2c1)CC(O)Cc1ccccc1-3 (stereo not shown) | – | 20 to 1000 | 10 to 1000 | –
38 | COC(=O)/C=C/c1ccc(NC(=O)C2(NC(=O)c3ccc4c(C5CCCCC5)c5n(c4c3)CCCc3sc(C)nc3-5)CCCC2)cc1 | – | > 1000 | > 10000 | –
39 | O=C(O)c1ccc2c(C3CCCCC3)c3n(c2c1)C/C=C\CN(CCO)c1ccccc1-3 | – | > 1000 | 1000 to 10000 | –
40 | COc1ccc2c(c1)C=C(C(=O)N1CCOC(CN(C)C)C1)Cn1c-2c(C2CCCCC2)c2ccc(C(=O)NS(=O)(=O)N(C)C)cc21 (stereo not shown) | – | – | 50 to 1000 | IC50 ([2]; preincubation protocol): 10 to 1000 nM
41 | O=C(O)c1ccc2c(C3CCCCC3)c3n(c2c1)CC(C(=O)N1CCCOCC1)=Cc1ccccc1-3 | – | 20 to 1000 | 10 to 1000 | –
42 | O=C(O)c1ccc2c(C3CCCCC3)c3n(c2c1)CCN(C(=O)Nc1ccccc1)c1ccccc1-3 | – | 20 to 1000 | 1000 to 10000 | –
43 | COC(=O)c1ccc2c(C3CCCCC3)c3n(c2c1)CC(C(=O)N1CCOCC1)=Cc1cccnc1-3 | – | > 1000 | 1000 to 10000 | –
44 | COC1c2ccccc2-c2c(C3CCCCC3)c3ccc(C(=O)NC4(C(=O)Nc5ccc(/C=C/C(=O)O)cc5)CCCC4)cc3n21 (stereo not shown) | 10 to 1000 | 20 to 1000 | – | –
45 | O=C(O)c1ccc2c(C3CCCCC3)c3n(c2c1)CCOc1ccccc1-3 | 10 to 1000 | – | – | –

— US7348425B2, “Inhibitors of HCV replication” (Bristol-Myers Squibb Company, priority 2004, dated 2008)
